This note sets out measurements from publication PMC9699003, “Arene Variation of Highly Cytotoxic Tridentate Naphthoquinone-Based Ruthenium(II) Complexes and In-Depth In Vitro Studies” (Pharmaceutics, 2022).

The term IC50 denotes the concentration at which inhibition is half-maximal. The low end stands for inhibition by little substance, the high end for a need for much substance.

The subject of data set [1] is SW480 cells. The data set is described as follows: Apoptosis assay (annexin V-FITC/PI, flow cytometry). Particulars: SW480, 24 h; for early apoptotic cells / late apoptotic cells / necrotic cells / viable cells: mean ± SD; for Apoptosis / necrosis induction (in words): concentrations covering the IC50 range.
Method: Cell death induction was quantitatively analyzed via flow cytometry using double staining with FITC-conjugated annexin V (eBioscience, San Diego, CA, USA) and propidium iodide (PI, 1.0 mg/mL, Sigma-Aldrich). SW480 cells were seeded into 24-well plates (7 × 10^4 cells/well) in 600 µL MEM per well and allowed to settle for 24 h. Afterward, cells were exposed to two or three different concentrations (0.1–100 µM) of the compounds (based on their cytotoxic activity) for 24 h. After treatment, the medium was collected, and cells were washed once with 37 °C warm PBS and harvested. Following trypsinization, the cell suspension was added to the pre-collected medium and cells were centrifuged (300 g, 3 min). The supernatant was removed, and the cell pellet was resuspended with 1.5 µL FITC-conjugated annexin V in 150 µL binding buffer (10 mM HEPES/NaOH pH 7.4, 140 mM NaCl and 2.5 mM CaCl2) and incubated at 37 °C for 15 min. An amount of 1 µL of propidium iodide (PI, Thermo Fisher) was added shortly before flow-cytometric analysis using a Guava easyCyte 8HT instrument (Merck Millipore, Burlington, MA, USA) with InCyte software. Results were quantified by using the FlowJo software (TreeStar). At least three independent experiments were conducted.
The next data set addresses T1, NQO1 (SW480 cells) (Homo sapiens, UniProt P15559).
T1 construct: impact on NQO1 activity in SW480 (left panel) and CH1/PA-1 (right panel) cell extracts after treatment; endogenous in cells; host or cells: SW480 colon carcinoma cells (ATCC)
Kind of data set: NQO1 activity assay in cell extracts after treatment. It is filed as cell-based. The settings on record: SW480, 24 h treatment. On the procedure: To determine NQO1 activity, SW480 and CH1/PA-1 cells were seeded into 6-well plates in densities of 2 × 10^5 cells/well in 2 mL supplemented MEM. […] The test substances were dissolved in DMSO/medium. To exclude that assay validity was compromised by the use of DMSO, cells treated with DMSO alone (at concentrations corresponding to those in substance solutions) were measured in parallel. After 24 h drug exposure, the medium was aspirated, and the cells were gently washed twice with PBS. The further steps were performed following the manual instructions of the NQO1 activity assay kit (ab184867, abcam, Cambridge, UK). Protease inhibitor phenylmethylsulfonyl fluoride (PMSF, Merck, Darmstadt, Germany) and phosphatase inhibitor PhosSTOP^TM (Roche, Basel, Switzerland) were applied. For determining the protein concentration, the Micro BCA^TM protein assay (prod # 23235, Thermo Scientific) kit was used. For NQO1 activity determination, 100 µg/mL of total protein was loaded. The development of yellow color was monitored for 5 min in 20-sec intervals with a microplate reader (BioTek ELx808) at 450 nm. The measured data were evaluated according to the instructions of the NQO1 activity assay kit: “NQO1 activity was calculated by subtracting the OD value with Inhibitor from the one without Inhibitor. The activity is expressed as the change in absorbance per minute per amount of sample loaded into the well” [30]. Data are expressed as rates of increase of mean absorbance ± SDs from three independent experiments.

For data set [2], the system named is SW480 cells. Kind of data set: Colony formation assay. It is filed as cell-based, human. Particulars: SW480, 11 days, relative to untreated control. On the procedure: For the colony formation assay, SW480 cells were seeded at a density of 350 cells/2 mL into each well of 6-well plates (CytoOne, tissue culture treated) and left to adhere for 24 h. To determine the long-term effects of the test compounds, the cells were exposed to them for 11 days at 37 °C and 5% CO2. After incubation, the wells were gently washed with 1 mL cold PBS and the colonies were fixed with 1 mL cold (4 °C) 100% methanol (Thermo Fisher, Waltham, MA, USA) for 30 min at 4 °C and washed with 1 mL PBS again. The fixed colonies were stained with 1 mL of 0.5% w/v crystal violet (Sigma-Aldrich) in methanol for 2 min and the plates were washed under tap water. After drying the plates, images of the wells were captured, and colonies were counted with the colony counting function of Fusion Fx7 software (Vilber Lourmat, Collégien, France). Results were normalized to untreated controls. Data are averaged from at least three independent experiments.

The subject of data set [3] is CH1/PA-1 ovarian teratocarcinoma cells. Kind of data set: MTT assay (cytotoxicity). It is filed as cell-based, human. The settings on record: CH1/PA-1, MTT. In short, it runs like this:
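Cells in supplemented MEM were exposed 24 h or 96 h to nine two-fold serial dilutions (DMSO stocks 20 or 40 mM), in triplicate. Viability by MTT conversion for 4 h, formazan dissolved in DMSO, absorbance at 550 nm (690 nm reference); IC50 interpolated from blank-corrected OD, ≥3 independent experiments.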
(In general: Tetrazolium assays rely on reduction of a dye to a coloured formazan, in cell work by metabolically active cells.)

The test system of another data set is pUC19 plasmid. The data set is described as follows: DNA interaction assay (dsDNA plasmid, agarose gel electrophoresis). It counts as biochemical. Particulars: 50 µM; for open circular (oc) form of pUC19 (single-strand breaks): 37 °C, after 6 h of incubation, control after 6 h 3.6 ± 0.7%. On the procedure:
The incubation was performed at 37 °C for different time intervals (15 min to 6 h) with continuous shaking. Additionally, 4 µL aliquots of a 6× DNA loading dye (Thermo Fisher) were added to the 20 µL reaction solution, and the DNA samples were separated in a 1% agarose gel in 1 × Tris-Borate-EDTA (TBE) buffer. Electrophoresis was initiated at 60 V for 5 min and continued at 120 V for 90 min in 1 × TBE buffer. For visualization of the DNA modification degree, the agarose gel was stained with ethidium bromide (EtBr) in 1 × TBE (0.75 µg/mL) for 20 min.

The mark [4] stands for this setting: Homo sapiens, read-out: viable cells.

T1 sequence (P15559 whole entry): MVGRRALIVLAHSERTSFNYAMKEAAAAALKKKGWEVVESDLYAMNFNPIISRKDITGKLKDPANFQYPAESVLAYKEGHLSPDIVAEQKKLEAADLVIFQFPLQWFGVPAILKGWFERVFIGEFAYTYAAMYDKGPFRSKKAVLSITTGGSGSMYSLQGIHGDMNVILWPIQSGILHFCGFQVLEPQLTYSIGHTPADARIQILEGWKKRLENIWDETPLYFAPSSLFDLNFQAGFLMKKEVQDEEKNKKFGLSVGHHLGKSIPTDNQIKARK

As for `CC1=C([O-])C([O-])(n2cccn2)c2ccccc2C1=O.Cc1ccc(C(C)C)cc1.[Ru+2]` (racemic) [Compound 1], the early apoptotic cells in the data set with SW480 cells [1] (0.1 µM) is 3.7 ± 3.1%; with SW480 cells [1] (1 µM) it was 1.3 ± 0.5%; in the data set with SW480 cells [1] (10 µM), 16 ± 1%. In addition, the results for the late apoptotic cells in the data set with SW480 cells [1] (0.1 µM), in the data set with SW480 cells [1] (1 µM) and with SW480 cells [1] (10 µM) were 3.6 ± 2.6%, 4.9 ± 2.8% and 64 ± 6%, respectively. In addition, the necrotic cells is recorded as 0.77 ± 0.33% in the data set on SW480 cells [1] (0.1 µM), 1.2 ± 0.8% in the data set on SW480 cells [1] (1 µM) and 6.7 ± 3.1% in the data set with SW480 cells [1] (10 µM). The figures for the viable cells in the data set on SW480 cells [1] (0.1 µM), with SW480 cells [1] (1 µM) and in the data set on SW480 cells [1] (10 µM) were 92 ± 6%, 93 ± 4% and 13 ± 3%, respectively. Also, the “Apoptosis / necrosis induction (in words)” value in the data set with SW480 cells [1] is listed as “induced apoptosis to a high extent”. Moreover, the “Effect on NQO1 activity (in words)” value at NQO1 (SW480 cells) (0.1 µM and 1 µM, compared to untreated control) is reported as “negligible effects”; on NQO1 (SW480 cells) (10 µM), “lowered NQO1 activity tremendously”. Besides, the Number of colonies was 18 ± 5% with SW480 cells [2] (0.039 µM), 3.1 ± 0.8% in the data set with SW480 cells [2] (0.078 µM) and 0.26 ± 0.43% in the data set with SW480 cells [2] (0.16 µM). Further, in data set [3] (24 h exposure), the IC50 turned out to be 59 ± 18 µM.

In the case of `CC1=C([O-])C([O-])(n2cccn2)c2ccccc2C1=O.[Ru+2].c1ccccc1` (racemic) [Compound 2], the early apoptotic cells in the data set on SW480 cells [1] (1 µM) was determined as 1.1 ± 0.4%; in the data set on SW480 cells [1] (10 µM), 1.0 ± 0.3%. Further, the figures for the late apoptotic cells in the data set on SW480 cells [1] (1 µM) and in the data set on SW480 cells [1] (10 µM) were 2.0 ± 0.2% and 2.0 ± 0.3%, respectively. Also, the necrotic cells with SW480 cells [1] (1 µM) is listed as 1.4 ± 0.8%; with SW480 cells [1] (10 µM) it was 1.5 ± 0.8%. The viable cells came out at 95 ± 1% in the data set with SW480 cells [1] (1 µM) and 96 ± 1% in the data set with SW480 cells [1] (10 µM). Also, the Number of colonies in the data set with SW480 cells [2] (5 µM) is 48 ± 9%; in the data set with SW480 cells [2] (10 µM), 20 ± 4%; with SW480 cells [2] (20 µM), 3.5 ± 1.5%. For the same compound, the “open circular (oc) form of pUC19 (single-strand breaks)” value (shortened to “open circular (oc) form of pUC19”) in the data set on pUC19 plasmid amounted to 11.8 ± 0.9%. The results for the IC50 in data set [3] (24 h exposure) and in data set [3] (96 h exposure) were 170 ± 23 µM and 157 ± 8 µM, respectively.

`CC1=C([O-])C([O-])(n2cccn2)c2ccccc2C1=O.Cc1ccccc1.[Ru+2]` (racemic) [Compound 3]: the results for the early apoptotic cells with SW480 cells [1] (1 µM) and in the data set on SW480 cells [1] (10 µM) were 1.0 ± 0.7% and 0.7 ± 0.3%, respectively. The values for the late apoptotic cells in the data set with SW480 cells [1] (1 µM) and with SW480 cells [1] (10 µM) were 2.1 ± 0.3% and 2.1 ± 0.7%, respectively. Further, the necrotic cells with SW480 cells [1] (1 µM) was 1.0 ± 0.5%; in the data set with SW480 cells [1] (10 µM) it was 0.72 ± 0.49%. For the same compound, the viable cells in the data set with SW480 cells [1] (1 µM) was determined as 96 ± 1%; in the data set with SW480 cells [1] (10 µM), 97 ± 1%. In addition, the Number of colonies with SW480 cells [2] (1.25 µM) stood at 53 ± 8%; with SW480 cells [2] (2.5 µM), 23 ± 8%; in the data set with SW480 cells [2] (5 µM), 4.3 ± 3.7%. For the same compound, the “open circular (oc) form of pUC19” value in the data set on pUC19 plasmid is recorded as 11.7 ± 1.6%. Besides, the figures for the IC50 in data set [3] (24 h exposure) and in data set [3] (96 h exposure) were 121 ± 18 µM and 138 ± 10 µM, respectively.

As for `CC1=C([O-])C([O-])(n2cccn2)c2ccccc2C1=O.[Ru+2].c1ccc2c(c1)CCC2` (racemic) [Compound 4], the early apoptotic cells in the data set on SW480 cells [1] (0.1 µM) is reported as 1.1 ± 0.5%; with SW480 cells [1] (1 µM), 1.1 ± 0.7%; with SW480 cells [1] (10 µM), 1.0 ± 0.4%. In addition, the figures for the late apoptotic cells in the data set with SW480 cells [1] (0.1 µM), with SW480 cells [1] (1 µM) and in the data set on SW480 cells [1] (10 µM) were 2.1 ± 0.4%, 2.4 ± 1.2% and 8.3 ± 4.9%, respectively. Besides, the necrotic cells is 1.7 ± 1.1% in the data set with SW480 cells [1] (0.1 µM), 0.93 ± 0.65% in the data set on SW480 cells [1] (1 µM) and 3.4 ± 4.0% with SW480 cells [1] (10 µM). Moreover, the viable cells with SW480 cells [1] (0.1 µM) was 95 ± 2%; with SW480 cells [1] (1 µM), 96 ± 2%; in the data set on SW480 cells [1] (10 µM), 87 ± 8%. For the same compound, the “Effect on NQO1 activity (in words)” value on NQO1 (SW480 cells) (10 µM) is reported as “moderate suppression of enzyme activity”. The results for the Number of colonies in the data set on SW480 cells [2] (0.31 µM), with SW480 cells [2] (0.63 µM) and in the data set with SW480 cells [2] (1.25 µM) were 22 ± 5%, 5.1 ± 2.1% and 0.82 ± 0.85%, respectively. The “open circular (oc) form of pUC19” value in the data set with pUC19 plasmid came out at 12.1 ± 1.9%. The IC50 in data set [3] (24 h exposure) was 146 ± 18 µM; in data set [3] (96 h exposure), 88 ± 10 µM.

As for `CC1=C([O-])C([O-])(n2cccn2)c2ccccc2C1=O.Cc1c(C)c(C)c(C)c(C)c1C.[Ru+2]` (centres unmarked) [Compound 6], the results for the early apoptotic cells with SW480 cells [1] (0.1 µM), with SW480 cells [1] (1 µM) and in the data set on SW480 cells [1] (10 µM) were 1.0 ± 0.7%, 1.1 ± 07% and 1.1 ± 0.3%, respectively. Moreover, the late apoptotic cells with SW480 cells [1] (0.1 µM) was found to be 4.7 ± 2.8%; with SW480 cells [1] (1 µM), 2.0 ± 0.7%; in the data set on SW480 cells [1] (10 µM), 3.7 ± 0.1%. For the same compound, the necrotic cells worked out at 17 ± 27% in the data set with SW480 cells [1] (0.1 µM), 1.0 ± 1.3% with SW480 cells [1] (1 µM) and 0.94 ± 0.52% in the data set with SW480 cells [1] (10 µM). In addition, the viable cells in the data set on SW480 cells [1] (0.1 µM) is 77 ± 29%; with SW480 cells [1] (1 µM), 96 ± 2%; in the data set on SW480 cells [1] (10 µM), 94 ± 0%. Also, in the data set on SW480 cells [1], the “Apoptosis / necrosis induction (in words)” value is on record as “neither apoptotic nor necrotic cells exceeded the percentages in untreated controls”. For the same compound, the Number of colonies with SW480 cells [2] (0.16 µM) stood at 28 ± 12%; in the data set on SW480 cells [2] (0.31 µM), 9.2 ± 3.2%; in the data set with SW480 cells [2] (0.63 µM), 1.2 ± 1.1%. Besides, the “Influence on pUC19 (in words)” value in the data set on pUC19 plasmid (up to 6 h) is on record as “only a minor influence on pUC19”. Moreover, the IC50 in data set [3] (24 h exposure) was found to be 57 ± 16 µM; in data set [3] (96 h exposure), 35 ± 4 µM.

On to `CC1=C(O)C(=O)c2ccccc2C1=O` [L, 2-Hydroxy-3-methyl-1,4-naphthoquinone], for which, in the data set with SW480 cells [1] (setting [4]), the viability at 10 µM was found to be 97 ± 1% and the viability at 100 µM came out at 96%. In the data set on SW480 cells [1] (10 µM), this compound gave an early apoptotic cells of 1.0 ± 0.5%, a late apoptotic cells of 1.6 ± 0.2% and a necrotic cells of 0.61 ± 0.44%. In the data set with SW480 cells [1] (100 µM), this compound displayed an early apoptotic cells of 1.0 ± 0.2%, a late apoptotic cells of 1.9 ± 0.2% and a necrotic cells of 0.86 ± 0.33%. In the data set with SW480 cells [1], the “Apoptosis / necrosis induction (in words)” value is “did not induce any of these processes”. Moreover, the “Effect on NQO1 activity (in words)” value on NQO1 (SW480 cells) (10 µM) is reported as “moderately inhibited”. Besides, in the data set on SW480 cells [2] (50 µM), the Number of colonies was 62 ± 25%. In the data set with SW480 cells [2] (150 µM), this compound gave a Number of colonies of 0 ± 0%. Further, in data set [3] (Homo sapiens, 24 h exposure), the IC50 was greater than 400 µM.
